# Source: patent publication US20050288369A1, “Novel n-hydroxy thiourea, urea and amide compounds and the pharmaceutical compositions comprising the same” (priority 2002, published 2005)
# Experiments:
# [1] = biological target: T1, VR1 (Rattus norvegicus, UniProt O35433); assay: 45Ca influx test in CHO cells expressing VR1, agonistic activity; assay type: cell-based; conditions: 45Ca uptake
# T1 construct: expressed in transfected cells; host or cells: Chinese Hamster Ovary cells (CHO, ATCC CCL-61), Tet-off inducible expression
# T1 sequence (O35433 whole entry): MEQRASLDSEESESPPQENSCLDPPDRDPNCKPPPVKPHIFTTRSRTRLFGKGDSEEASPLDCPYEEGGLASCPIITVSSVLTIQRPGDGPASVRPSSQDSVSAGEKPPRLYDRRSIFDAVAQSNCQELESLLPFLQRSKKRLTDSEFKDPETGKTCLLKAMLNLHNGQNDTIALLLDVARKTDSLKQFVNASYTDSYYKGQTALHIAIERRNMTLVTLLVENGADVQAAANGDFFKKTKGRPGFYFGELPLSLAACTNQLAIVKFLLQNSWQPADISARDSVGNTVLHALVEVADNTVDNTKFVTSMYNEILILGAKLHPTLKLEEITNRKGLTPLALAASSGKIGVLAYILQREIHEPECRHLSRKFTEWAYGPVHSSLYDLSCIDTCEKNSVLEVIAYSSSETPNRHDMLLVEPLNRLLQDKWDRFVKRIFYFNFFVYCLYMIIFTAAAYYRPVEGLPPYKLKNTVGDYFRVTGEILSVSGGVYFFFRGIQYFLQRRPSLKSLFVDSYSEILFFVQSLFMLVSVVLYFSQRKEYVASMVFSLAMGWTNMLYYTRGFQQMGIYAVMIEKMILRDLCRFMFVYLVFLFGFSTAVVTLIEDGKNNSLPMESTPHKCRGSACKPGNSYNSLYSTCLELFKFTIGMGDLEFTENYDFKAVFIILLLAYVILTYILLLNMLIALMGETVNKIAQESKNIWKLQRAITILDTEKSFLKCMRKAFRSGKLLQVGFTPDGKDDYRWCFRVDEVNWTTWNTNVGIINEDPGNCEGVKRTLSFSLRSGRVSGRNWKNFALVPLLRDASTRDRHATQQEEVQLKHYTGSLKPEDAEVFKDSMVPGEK
# Method: The ^45Ca Influx test by using CHO cells expressing VR1 was performed by the procedure described in the literature (Lee, J. W., Bioorganic & Medicinal Chemistry, pp 1713-1720, 2001).
# (§1) The ^45Ca Influx test by using CHO cells of the inventive compounds was measured by using Chinese Hamster Ovary (CHO, ATCC, No. CCL-61) cell whose cDNA of VR1 (pUHG102 VR1 plasmid) was transfected, which can control the expression of VR1 according to the presence of tetracycline and Tetracycline on/off system (pTet off regulatory plasmid, Clontech. Inc., USA) that the expression of VR1 is induced by removing tetracycline from the medium.
# (§2) The CHO cells were poured onto 24 well plates to the extent that its density reaches at 30% and incubated for 24 hours at 37° C. The culture medium was exchanged to tetracycline free medium to induce the expression of VR1 and tested after 36 hours.
# (§3) In radioactive ^45Ca uptake experiment, The cells were incubated in 500 ml of DMEM medium (Dulbecco's modified Eagles medium: Gibco-BRL, 31600-083) containing free of serum and 1.8 mM CaCl2 for 10 minutes at 37*C. Together with 0.25 mg/ml BSA (Sigma A2153, USA), 1 Ci/ml ^45Ca(5-30 Ci/g used, ICN. Co., 62005 RT, U.S.A.), the test samples with increasing concentrations were added to each well. At the quenching moment of the incubation with ^45Ca, the cultured cells were removed from the medium, washed three times with cool PBS buffer solution containing 1.8 mM CaCl2 and 400 μl of RIPA buffer solution (50 mM Tris pH 7.4; 150 mM sodium chloride; 0.1% SDS; 1% sodium deoxycholate), was added in each well to homogenize the cells. The plates were stirred for 20 minutes slowly and 300 μl of cell lysate was transferred to scintillation vials from each wells. The radioactivity was determined by scintillation counter.
# (§4) The data were assessed by determining four wells per each data point in each experiment and analyzed in computer by being transformed into Hill equation. The experiments were determined in triplicate in each sample comprising inventive compounds and control groups.
# [2] = biological target: T2, vanilloid receptor-1 (VR1) (Rattus norvegicus, UniProt O35433); assay: [3H]RTX competition binding assay, VR1-expressing CHO cells; conditions: displacement of bound [3H]RTX; mean±SEM, 3 experiments
# T2 construct: expressed in transfected cells; host or cells: Chinese Hamster Ovary cells (CHO, ATCC CCL-61), Tet-off inducible expression
# T2 sequence (O35433 whole entry): as above
# Method: The binding affinity activity of the target compounds for vanilloid receptor-1 was measured by an in vitro receptor binding affinity assay. In the receptor binding assay, the compounds were evaluated for their ability to displace bound [^3H]RTX from the receptor. The results are expressed in terms of Ki values (mean±SEM, 3 experiments) which represent the concentration of the non-radioactive ligand that displaces half of the bound labeled RTX.
# The VR receptor binding affinity activity of the inventive compounds was measured by using Chinese Hamster Ovary (CHO, ATCC, No. CCL-61) cell whose cDNA of VR1 (pUHG102 VR1 plasmid) was transfected, which can control the expression of VR1 according to the presence of tetracycline and Tetracycline on/off system (pTet off regulatory plasmid, Clontech. Inc., USA) that the expression of VR1 is induced by removing tetracycline from the medium. […] The cells were cultured after removing tetracycline prior to 48 hours. The tetracycline free culture medium was seeded at the bottom of T75 flask, incubated to the extent that its density reaches at 90%, and washed once with PBS buffer solution. The cells were collected by using saline solution containing 5 mM EDTA and subjected to centrifugation slightly to obtain precipitates, further, which had been kept at the temperature of −20° C. before use.
# Experiments were designed to assess inhibition of specific [^3H]RTX binding to membranes by non-radioactive compounds. The binding assay mixture containing [^3H]RTX ([…]), various concentrations of competitive binding substances, 0.25 mg/ml of BSA (Cohn fraction V), 5×10^4 ˜5×10^5 numbers of VR1 and the expression cell, was admixed with saline solution containing 450 μl of Ca^2+ and Mg^2+ and […] of BSA. Non-specific binding assay was measured after mixing 100 nM of non-radioactive RTX thereto. The reaction mixture was treated for 60 min at 37° C. and the reaction was quenched by cooling over ice. RTX bound to the membrane of VR1 was subjected to centrifugation with maximum velocity for 15 minutes to precipitate its membrane residue, which results in separating from non-binding RTX. The tips of tube containing above precipitate was cut off and the amount of bound radioisotope was determined by scintillation counter (LS6500, Beckman-Coulter, USA). The measurement of binding was determined in triplicate in each experiment, and each experiment was repeated at least two times. Binding data were analyzed by fitting to the Hill equation and the Ki (equilibrium binding parameter) index, the Bmax (maximum binding parameter) index, and the cooperativity index etc., were determined by using origin 6.0 program (Origin, MicroCal Co., USA).
# An initial compound was dissolved in DMSO (dimethyl sulfoxide) and diluted with saline solution containing Ca^2+ and […], and […] of BSA.
# [3] = biological target: T1, VR1; assay: 45Ca influx test in CHO cells expressing VR1, antagonistic activity against 50 nM capsaicin; assay type: cell-based; conditions: 45Ca uptake stimulated with 50 nM capsaicin
# Method: as §1, §2
# as §3, with “Together” for “In radioactive ^45Ca uptake experiment, The cells were incubated in 500 ml of DMEM medium (Dulbecco's modified Eagles medium: Gibco-BRL, 31600-083) containing free of serum and 1.8 mM CaCl2 for 10 minutes at 37*C. Together”
# as §4
# In order to determine the antagonistic activity, ^45Ca^2+-uptake stimulating-mixture was added with 50 nM capsaicin and the antagonistic activity was determined by the method for the agonistic activity. In case that 10 μM a certain compound cannot change the capsaicin-inducing activity, the compound shall be regarded as an […].
# [4] = test system: Male ICR mice; assay: Acetic acid-induced writhing test; assay type: in vivo; conditions: Mus musculus, ip; i.p. 30 mins before 1.2% acetic acid i.p.; 50% reduction of the number of writhes
# Method: The acetic acid-induced writhing test for testing the analgesic activity of inventive compounds prepared from above Examples was performed by the procedure described in the literature (Lee, J. W., Bioorganic & Medicinal Chemistry, pp 1713-1720, 2001).
# Male ICR mice having its mean body weight of 25 g (CD-1; Biogenomics Co. Korea) were reared in lighting controlled environment (12 hrs on/12 hrs off) maintaining with temperatures at 22±2° C. and humidity at 50±5% and allowed to eat a diet and to drink tap water ad lib.
# Mice were fasted overnight prior to testing and adopted to the environment.
# 0.3 ml of acetic acid solution (1.2%) was administrated in the mice intraperitoneally and then the mice were put into the transparent acryl box (15×15×15 cm). 5 minutes later, the number of abdominal constrictions was counted for 20 minutes. Each group consisting of ten mice was pretreated with test compounds or solvent (0.2 ml, i.p.) 30 mins before the injection of acetic acid. Test compounds were dissolved in the mixture of ethanol/Tween-80/saline ([…]) or cremophor EL/DMSO/d-water ([…]).
# Analgesic activity of each drug was determined at several different concentrations.
# The index of analgesic activity (eff) was defined as below Empirical formula 1. Analgesic activity (eff)=100−{(No. of abdominal constriction of test group/No. of abdominal constriction of control group)×100} [Empirical formula 1]
# Analgesic activity was expressed as the reduction in the number of abdominal constrictions, of control animals (vehicle-pretreated mice) and animals pretreated with test compounds.
smiles,measurement,setting,value
"CC(C)(C)C(=O)OCC(Cc1ccc(C(C)(C)C)cc1)CN(O)C(=S)NCc1ccc(NS(C)(=O)=O)cc1 (stereo not drawn) [Compound 40, N-[2-(4-tert-butylbenzyl)-3-(pivaloyloxy)propyl]-N-hydroxy-N-[4-(methylsulfonylamino)benzyl]thiourea]",EC50 (nM) (VR1/CHO),[1],weak
same,Ki,[2],536 nM
"Cc1ccc(CC(CNC(=S)N(O)Cc2ccc(NS(C)(=O)=O)cc2)COC(=O)C(C)(C)C)cc1C (stereo not drawn) [Compound 61, N-[2-(3,4-dimethylbenzyl)-3-(pivaloyloxy)propyl]-N-hydroxy-N-[4-(methylsulfonylamino)benzyl]thiourea]",EC50 (nM) (VR1/CHO),[1],Weak
same,IC50 (nM) (VR1/CHO),[3],Weak
same,Ki,[2],481 nM
"CC(C)(C)c1ccc(CN(O)C(=S)NCc2ccc(NS(C)(=O)=O)c(Cl)c2)cc1 [Compound 31, N-(4-tert-butylbenzyl)-N-hydroxy-N-[3-chloro-4-(methylsulfonylamino)benzyl]thiourea]",IC50,[3],579 nM
same,Ki,[2],1310 nM
"CC(C)(C)c1ccc(CN(O)C(=S)NCc2ccc(NS(C)(=O)=O)cc2Cl)cc1 [Compound 34, N-(4-tert-butylbenzyl)-N-hydroxy-N-[2-chloro-4-(methylsulfonylamino)benzyl]thiourea]",Ki,[2],2270 nM
"Oc1cc2c(cc1O)CN(C(=S)NCCc1ccc(Cl)cc1)CCC2 [Capsazepine, reference compound]",IC50,[3],520 nM
same,Ki,[2],1350 nM
"CC(C)(C)c1ccc(CNC(=S)NCc2ccc(NS(C)(=O)=O)cc2)cc1 [KJM-429, reference compound]",ED50,[4],1410 µg/kg
"CC(C)(C)c1ccc(CN(O)C(=S)NCc2ccc(NS(C)(=O)=O)cc2F)cc1 [Compound 33, N-(4-tert-butylbenzyl)-N-hydroxy-N-[2-fluoro-4-(methylsulfonylamino)benzyl]thiourea]",EC50,[1],12300 nM
same,Ki,[2],1920 nM
"Cc1ccc(CC(COC(=O)C(C)(C)C)CN(O)C(=S)NCc2ccc(NS(C)(=O)=O)cc2Cl)cc1C (stereo not drawn) [Compound 39, N-[2-(3,4-dimethylbenzyl)-3-(pivaloyloxy)propyl]-N-hydroxy-N-[2-chloro-4-(methylsulfonylamino)benzyl]thiourea]",IC50,[3],757 nM
same,Ki,[2],221 nM
"COc1cc(CNC(=S)N(O)CC(COC(=O)C(C)(C)C)Cc2ccc(C)c(C)c2)ccc1NS(C)(=O)=O (stereo not drawn) [Compound 36, N-[2-(3,4-dimethylbenzyl)-3-(pivaloyloxy)propyl]-N-hydroxy-N-[3-methoxy-4-(methylsulfonylamino)benzyl]thiourea]",EC50,[1],809 nM
same,Ki,[2],396 nM
"Cc1ccc(CC(CNC(=S)NCc2ccc(NS(C)(=O)=O)cc2)COC(=O)C(C)(C)C)cc1C (stereo not drawn) [JYL-827, reference compound]",ED50,[4],2.62 µg/kg
"CC(C)(C)C(=O)OCC(Cc1ccc(C(C)(C)C)cc1)CN(O)C(=S)NCc1ccc(NS(C)(=O)=O)c(F)c1 (stereo not drawn) [Compound 41, N-[2-(4-tert-butylbenzyl)-3-(pivaloyloxy)propyl]-N-hydroxy-N-[3-fluoro-4-(methylsulfonylamino)benzyl]thiourea]",EC50 (nM) (VR1/CHO),[1],Weak
same,IC50 (nM) (VR1/CHO),[3],Weak
same,Ki,[2],405 nM
"CC(C)(C)c1ccc(CN(O)C(=S)NCc2ccc(NS(C)(=O)=O)c([N+](=O)[O-])c2)cc1 [Compound 32, N-(4-tert-butylbenzyl)-N-hydroxy-N-[4-(methylsulfonylamino)-3-nitrobenzyl]thiourea]",IC50,[3],635 nM
"O=C(c1ccccc1)c1ccc2n1CCC2C(=O)O (stereo not drawn) [Ketorolac, reference compound]",ED50,[4],2820 µg/kg
"Cc1ccc(CC(CNC(=S)N(O)Cc2ccc(NS(C)(=O)=O)c(F)c2)COC(=O)C(C)(C)C)cc1C (stereo not drawn) [Compound 64, N-[2-(3,4-dimethylbenzyl)-3-(pivaloyloxy)propyl]-N-hydroxy-N-[3-fluoro-4-(methylsulfonylamino)benzyl]thiourea]",EC50 (nM) (VR1/CHO),[1],Weak
same,Ki,[2],546 nM
"CC(C)(C)c1ccc(CNC(=S)NCc2ccc(NS(C)(=O)=O)c(F)c2)cc1 [SC-0030, reference compound]",ED50,[4],1.26 µg/kg
"Cc1ccc(CC(CNC(=S)NCc2ccc(NS(C)(=O)=O)c(F)c2)COC(=O)C(C)(C)C)cc1C (stereo not drawn) [JYL-1433, reference compound]",ED50,[4],7.43 µg/kg
"CC(C)(C)c1ccc(CC(=O)N(O)Cc2ccc(NS(C)(=O)=O)cc2)cc1 [Compound 63, N-hydroxy-N-[4-(methylsulfonylamino)benzyl]-2-(4-tert-butylphenyl)acetamide]",EC50,[1],1960 nM
same,Ki,[2],5310 nM
"Cc1ccc(CC(COC(=O)C(C)(C)C)CN(O)C(=S)NCc2ccc(NS(C)(=O)=O)cc2F)cc1C (stereo not drawn) [Compound 38, N-[2-(3,4-dimethylbenzyl)-3-(pivaloyloxy)propyl]-N-hydroxy-N-[2-fluoro-4-(methylsulfonylamino)benzyl]thiourea]",EC50,[1],1350 nM
